13 molecules from patent US20240300923A1, “IRAK4 Inhibitors” (ASTRAZENECA AB, priority 2022, published 2024) can be followed below.

In assay [1] the target is T1, IRAK4 (Homo sapiens (Human), UniProt Q9NWZ3). Put plainly: IRAK4 enzyme assay (mass spectrometry readout). In kind it is biochemical. The following applies: human recombinant IRAK4 0.2 nM, 3 mM ATP; geometric mean of at least 2 experiments. As to the method:
Potency of IRAK4 Inhibitor Compounds in IRAK4 Enzyme Assay
The inhibitory activity of compounds against IRAK4 were determined in an enzymatic assay using mass spectrometry readout. Ten point half-log compound concentration response curves, with a top concentration of 1 μM or 10 μM, were generated from 10 mM stocks of compound solubilized in DMSO using an Echo 655 (Labcyte Inc) and added to 384 well assay plates (Greiner #781280). To the assay plates, 10 μL of human recombinant IRAK4 protein (Life Technologies #PV4002) diluted to a final concentration of 0.2 nM in assay buffer (50 mM Tris-HCl pH 7.4, 10 mM MgCl, 5 mM glutathione, 0.01% BSA, 3 mM ATP) was added. The enzyme was incubated with the compounds at room temperature for 15 minutes before a peptide substrate ([…], Innovagen custom synthesis, 10 mM in DMSO) was added to each well to a final concentration of 10 μM using an Echo 655 (Labcyte Inc). After two hours at room temperature, the reaction was stopped with 65 μL of 0.4% formic acid (Merck #33015). The unphosphorylated and phosphorylated peptide were measured by LC-MS/MS on a Waters TQ-S mass spectrometer. Peaks were integrated using the TargetLynx software and the ratios between phosphorylated and unphosphorylated peptides were calculated. Curves were fitted and compound potencies determined in Genedata Screener 19 (Genedata AG). IC50 values are the geometric mean of at least 2 experiments.

Assay [2] concerns the target T1, IRAK4. Put plainly: IRAK4 phosphorylation cell assay (IL-1β-stimulated Karpas-299 cells). In kind it is cell-based. The following applies: IRAK4 auto-phosphorylation (pIRAK4 Thr345/Ser346) in IL-1β-stimulated Karpas-299 cells; geometric mean of at least 2 experiments. As to the method:
IRAK4 Phosphorylation Cell Assay
The activation of IRAK4 by TLR or IL-1R ligands leads to IRAK4 auto-phosphorylation, which can be prevented by IRAK4 kinase inhibitors. The effect of IRAK4 inhibitor compounds on IRAK4 auto-phosphorylation was assessed in IL-1β-stimulated Karpas-299 cells as a measurement of cellular potency. Karpas-299 cells were cultured in RPMI 1640 (Gibco 61870-010) containing 10% FBS (Gibco #10270). Cells were plated at 2×10^4 cells per well in poly-D-lysine coated 384 well plates (Corning #356663) to which compounds had been added at various concentrations (10 point half log dose response with a final top concentration of 30 μM) using an Echo 655 (Labcyte Inc). Cells were centrifuged (250 g, 4 mins), incubated at 37° C. for 1 h, then stimulated with 22.7 ng/mL recombinant IL-1β (R&D Systems, #201-LB-025) at 37° C. for 10 mins, followed by fixation in 4% paraformaldehyde for 20 mins and permeabilization in ice-cold 70% MeOH in PBS for 30 mins. Cells were washed twice with phosphate-buffered saline (PBS) on a BlueWasher (BlueCatBio) then blocked with PBS containing 10% FBS for 20 mins. Blocking solution was removed with a BlueWasher and cells were stained with anti-pIRAK4 (Thr345/Ser346) (CST, #11927, 1:400) in blocking buffer with 0.05% Tween-20 for 1 h, then washed twice with PBS containing 0.05% Tween-20 on a BlueWasher, followed by staining with a Alexa 647-conjugated secondary anti-rabbit IgG antibody (CST, #4414, 1:2,000) and Hoechst 33342 (Sigma, 1:2,000) in blocking buffer with 0.05% Tween-20 for 30 mins. Finally, the cells were washed twice with PBS containing 0.05% Tween-20 and imaged on an ImageXpress Micro (Molecular Devices) with a 10× air objective using the appropriate filters. Images were analysed in Columbus (PerkinElmer) and the fluorescence intensity per cell from the secondary antibody was quantified. The quantified data were analysed in Genedata Screener 19 (Genedata AG). […] IC50 values are the geometric mean of at least 2 experiments.

The target in a further assay is human cKit kinase (Homo sapiens (Human), UniProt P10721). Put plainly: cKit enzyme assay (LANCE, Eurofins CEREP). In kind it is biochemical. The conditions noted are these: human recombinant enzyme, 50 μM ATP; geometric mean of at least n=2, * = single experiment. As to the method: Potency of IRAK4 Inhibitor Compounds in cKit Enzyme Assay
Sequence of human cKit kinase (P10721 26-976): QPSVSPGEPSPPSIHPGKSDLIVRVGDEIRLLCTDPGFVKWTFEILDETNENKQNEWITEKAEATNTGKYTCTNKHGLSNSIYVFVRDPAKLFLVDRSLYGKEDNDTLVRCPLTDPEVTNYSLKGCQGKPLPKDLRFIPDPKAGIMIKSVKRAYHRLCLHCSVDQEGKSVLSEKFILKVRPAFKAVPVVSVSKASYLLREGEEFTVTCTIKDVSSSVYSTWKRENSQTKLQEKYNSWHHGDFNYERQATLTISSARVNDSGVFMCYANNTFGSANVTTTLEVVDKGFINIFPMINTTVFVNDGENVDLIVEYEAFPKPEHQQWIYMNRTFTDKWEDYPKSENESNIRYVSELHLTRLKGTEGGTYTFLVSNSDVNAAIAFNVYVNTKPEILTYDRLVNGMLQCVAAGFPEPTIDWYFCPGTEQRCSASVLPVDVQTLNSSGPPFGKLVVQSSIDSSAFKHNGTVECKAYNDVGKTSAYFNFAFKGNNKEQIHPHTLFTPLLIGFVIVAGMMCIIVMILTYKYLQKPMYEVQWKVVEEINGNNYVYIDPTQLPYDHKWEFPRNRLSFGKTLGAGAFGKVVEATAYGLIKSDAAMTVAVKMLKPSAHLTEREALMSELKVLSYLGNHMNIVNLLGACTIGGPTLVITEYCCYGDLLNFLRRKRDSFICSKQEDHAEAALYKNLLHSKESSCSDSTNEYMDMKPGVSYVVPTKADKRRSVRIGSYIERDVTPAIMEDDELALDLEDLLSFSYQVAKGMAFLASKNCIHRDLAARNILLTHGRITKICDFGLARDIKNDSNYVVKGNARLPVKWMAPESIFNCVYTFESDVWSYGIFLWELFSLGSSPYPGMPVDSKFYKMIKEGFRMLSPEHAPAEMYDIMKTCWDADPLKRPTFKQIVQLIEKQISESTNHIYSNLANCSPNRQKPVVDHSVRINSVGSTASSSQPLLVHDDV
Evaluation of the effects of the IRAK4 inhibitor compounds on the activity of the human cKit kinase quantified by measuring the phosphorylation of the substrate Ulight-TK peptide using a human recombinant enzyme and the LANCE® detection method at Eurofins CEREP, catalog item 3070, SOP no 1C768: The test compound, reference compound or water (control) are mixed with the enzyme (0.38 ng) in a buffer containing 40 mM Hepes/Tris (pH 7.4), 0.8 mM EGTA/Tris, 8 mM MgCl2, 1.6 mM DTT and 0.008% Tween 20. Thereafter, the reaction is initiated by adding 100 nM of the substrate Ulight-TK peptide and 50 μM ATP, and the mixture is incubated for 30 min at room temperature. For control basal measurements, the enzyme is omitted from the reaction mixture. Following incubation, the reaction is stopped by adding 13 mM EDTA. After 5 min, the anti-phopho-PT66 antibody labeled with europium chelate is added. After 60 more min, the fluorescence transfer is measured at lex=337 nm, lem=620 nm and lem=665 nm using a microplate reader (Envision, Perkin Elmer). The enzyme activity is determined by dividing the signal measured at 665 nm by that measured at 620 nm (ratio). The results are expressed as a percent inhibition of the control enzyme activity. The standard inhibitory reference compound is staurosporine, which is tested in each experiment at several concentrations to obtain an inhibition curve from which its IC50 value is calculated.
Data presented are the geometric mean of at least n=2, or as denoted by an*are obtained from a single experiment. […] Kinase selectivity can be a key determinant of clinical utility as off target toxicity can be reduced or eliminated.

Bounds are passed on as bounds.

T1 sequence (Q9NWZ3 whole entry): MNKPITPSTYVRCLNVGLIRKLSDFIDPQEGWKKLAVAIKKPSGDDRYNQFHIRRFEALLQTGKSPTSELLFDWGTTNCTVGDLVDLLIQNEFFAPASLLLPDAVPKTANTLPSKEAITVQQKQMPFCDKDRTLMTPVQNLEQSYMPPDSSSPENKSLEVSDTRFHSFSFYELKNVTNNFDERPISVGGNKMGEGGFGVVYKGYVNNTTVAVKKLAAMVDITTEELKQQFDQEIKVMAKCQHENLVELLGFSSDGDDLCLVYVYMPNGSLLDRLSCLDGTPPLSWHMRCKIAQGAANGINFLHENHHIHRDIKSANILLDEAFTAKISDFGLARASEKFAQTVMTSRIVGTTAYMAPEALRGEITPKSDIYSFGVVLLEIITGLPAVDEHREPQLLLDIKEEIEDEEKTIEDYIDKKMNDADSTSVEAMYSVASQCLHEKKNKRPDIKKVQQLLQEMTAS

Take `COc1cc2nn([C@H]3CC[C@H](N(C)C(=O)[C@@H](C)O)CC3)cc2cc1C(=O)Nc1cccn(CC#N)c1=O` [Example 10, N-(1-(Cyanomethyl)-2-oxo-1,2-dihydropyridin-3-yl)-2-((1R,4r)-4-((R)-2-hydroxy-N-methylpropanamido)cyclohexyl)-6-methoxy-2H-indazole-5-carboxamide]: the figures for the IC50 on IRAK4 [1], at IRAK4 [2] and at human cKit kinase were 1.4 nM, 37 nM and 2500 nM, respectively.
As to `COc1cc2nn([C@H]3CC[C@H](N(C)C(=O)[C@H](C)O)CC3)cc2cc1C(=O)Nc1cccn(C2CC2)c1=O` [Example 11, N-(1-Cyclopropyl-2-oxo-1,2-dihydropyridin-3-yl)-2-((1S,4r)-4-((S)-2-hydroxy-N-methylpropanamido)cyclohexyl)-6-methoxy-2H-indazole-5-carboxamide], the IC50 (in general, the concentration at which inhibition is half-maximal) at IRAK4 [1] worked out at 0.9 nM; at IRAK4 [2], 23 nM; at human cKit kinase, 36300 nM.
In the case of `COc1cc2nn([C@H]3CC[C@H](N(C)C(=O)[C@@H](C)O)CC3)cc2cc1C(=O)Nc1cccn(C2CC2)c1=O` [Example 12, N-(1-Cyclopropyl-2-oxo-1,2-dihydropyridin-3-yl)-2-((1R,4r)-4-((R)-2-hydroxy-N-methylpropanamido)cyclohexyl)-6-methoxy-2H-indazole-5-carboxamide], the results for the IC50 on IRAK4 [1], against IRAK4 [2] and at human cKit kinase were 0.6 nM, 24 nM and 58200 nM, respectively.
Take `COc1cc2nn([C@H]3CC[C@H](N(C)C(=O)[C@@H](C)O)CC3)cc2cc1C(=O)Nc1cccn(C2COC2)c1=O` [Example 13, 2-((1R,4r)-4-((R)-2-Hydroxy-N-methylpropanamido)cyclohexyl)-6-methoxy-N-(1-(oxetan-3-yl)-2-oxo-1,2-dihydropyridin-3-yl)-2H-indazole-5-carboxamide]: the figures for the IC50 on IRAK4 [1], against IRAK4 [2] and on human cKit kinase were 0.7 nM, 30 nM and above 50000 nM, respectively.
Consider `COc1cc2nn([C@H]3CC[C@H](N(C)C(=O)[C@@H](C)O)CC3)cc2cc1C(=O)Nc1cccn(-c2cnn(C)c2)c1=O` [Example 15, 2-((1R,4r)-4-((R)-2-Hydroxy-N-methylpropanamido)cyclohexyl)-6-methoxy-N-(1-(1-methyl-1H-pyrazol-4-yl)-2-oxo-1,2-dihydropyridin-3-yl)-2H-indazole-5-carboxamide], for which the IC50 at IRAK4 [1] came to 0.9 nM; at IRAK4 [2], 35 nM; at human cKit kinase, 2700 nM.
Regarding `COc1cc2nn([C@H]3CC[C@H](N(C)C(=O)[C@@H](C)O)CC3)cc2cc1C(=O)Nc1cccn(-c2cn(C)nn2)c1=O` [Example 16, 2-((1R,4r)-4-((R)-2-Hydroxy-N-methylpropanamido)cyclohexyl)-6-methoxy-N-(1-(1-methyl-1H-1,2,3-triazol-4-yl)-2-oxo-1,2-dihydropyridin-3-yl)-2H-indazole-5-carboxamide], the figures for the IC50 at IRAK4 [1], against IRAK4 [2] and at human cKit kinase were 1 nM, 33 nM and 1400 nM, respectively.
The corresponding values for `COc1cc2nn([C@H]3CC[C@H](N(C)C(=O)[C@@H](C)O)CC3)cc2cc1C(=O)Nc1cccn(-c2cnn(C)n2)c1=O` [Example 17, 2-((1R,4r)-4-((R)-2-Hydroxy-N-methylpropanamido)cyclohexyl)-6-methoxy-N-(1-(2-methyl-2H-1,2,3-triazol-4-yl)-2-oxo-1,2-dihydropyridin-3-yl)-2H-indazole-5-carboxamide] are 1.1 nM, 34 nM and above 100000 nM.
The corresponding values for `COc1cc2nn([C@H]3CC[C@H](N4CCCC4=O)CC3)cc2cc1C(=O)Nc1cccn(C)c1=O` [Example 18, 6-Methoxy-N-(1-methyl-2-oxo-1,2-dihydropyridin-3-yl)-2-((1r,4r)-4-(2-oxopyrrolidin-1-yl)cyclohexyl)-2H-indazole-5-carboxamide] are 1 nM, 32 nM and 2400 nM.
The corresponding values for `COc1cc2nn([C@H]3CC[C@H](N4CCN(C)C4=O)CC3)cc2cc1C(=O)Nc1cccn(C)c1=O` [Example 19, 6-Methoxy-N-(1-methyl-2-oxo-1,2-dihydropyridin-3-yl)-2-((1r,4r)-4-(3-methyl-2-oxoimidazolidin-1-yl)cyclohexyl)-2H-indazole-5-carboxamide] are 0.9 nM, 34 nM and 10600 nM.
Turning to `COc1cc2nn([C@H]3CC[C@H](n4ccccc4=O)CC3)cc2cc1C(=O)Nc1cccn(C)c1=O` [Example 22, 6-Methoxy-N-(1-methyl-2-oxo-1,2-dihydropyridin-3-yl)-2-((1r,4r)-4-(2-oxopyridin-1(2H)-yl)cyclohexyl)-2H-indazole-5-carboxamide], the IC50 on IRAK4 [1] came out at 0.5 nM; on IRAK4 [2], 26 nM; at human cKit kinase, 26200 nM.
For `COc1cc2nn([C@H]3CC[C@H](c4nnco4)CC3)cc2cc1C(=O)Nc1cccn(C)c1=O` [Example 25, 2-((1r,4r)-4-(1,3,4-Oxadiazol-2-yl)cyclohexyl)-6-methoxy-N-(1-methyl-2-oxo-1,2-dihydropyridin-3-yl)-2H-indazole-5-carboxamide], in that order: 1.7 nM, 45 nM and above 100000 nM.
In the case of `COc1cc2nn([C@H]3CC[C@H](n4cncn4)CC3)cc2cc1C(=O)Nc1cccn(C)c1=O` [Example 26, 2-((1r,4r)-4-(1H-1,2,4-Triazol-1-yl)cyclohexyl)-6-methoxy-N-(1-methyl-2-oxo-1,2-dihydropyridin-3-yl)-2H-indazole-5-carboxamide], the IC50 was 2.2 nM at IRAK4 [1], 38 nM against IRAK4 [2] and above 100000 nM on human cKit kinase.
Turning to `COc1cc2nn([C@H]3CC[C@H](n4ccnn4)CC3)cc2cc1C(=O)Nc1cccn(C)c1=O` [Example 27, 2-((1r,4r)-4-(1H-1,2,3-Triazol-1-yl)cyclohexyl)-6-methoxy-N-(1-methyl-2-oxo-1,2-dihydropyridin-3-yl)-2H-indazole-5-carboxamide], the IC50 on IRAK4 [1] was 1.5 nM; on IRAK4 [2], 39 nM; at human cKit kinase, above 100000 nM.
